Consider two compounds from patent US8314082B2, “Stilbene derivatives for ADP-ribosyl cyclase inhibitors” (Industrial Cooperation Foundation Chonbuk National …, priority 2006, dated 2012).

Assay [1] relates to Ang II induced [Ca^2+]i increase in rat cardiomyocytes. Briefly: Ang II-mediated [Ca2+]i increase in cardiomyocytes. The format is cell-based. The settings on record: pretreatment with 1 mM; sustained but not initial Ca2+. Here is the method:
Cardiomyocytes were isolated from Sprague-Dawley rats, weighing 210-240 g, by the method with a slight modification [Xie et al., Biochem. Biophys. Res. Commun. (2005)330:1290-8]. Rat hearts were rapidly excised, cannulated, and subjected to retrograde perfusion on a Langendorff apparatus at 37° C. with Ca^2+-free Krebs-Hanseleit (KH) buffer (10 mM HEPES, 118 mM NaCl, 4.7 mM KCl, 1.2 mM MgSO4, 1.2 mM KH2PO4, 25 mM NaHCO3, 10 mM pyruvate, 11 mM glucose, and […], pH 7.3) for 5 min and then with KH buffer containing 5 mM taurine, 0.075% collagenase Type II and 0.08 mg/l protease type XTV for 7-15 min and washed with KH buffer containing 0.2 mM Ca^2+. The left ventricle was removed, chopped into small pieces and further digested in a glass conical flask at 37° C. for 10 min with shaking. The undigested tissues were removed through a […] nylon sheet. […] Isolated myocytes were pelleted by centrifugation at 60×g for 2 min at room temperature and resuspended in a stabilizing buffer (pH, 7.4) containing 20 mM HEPES, 137 mM NaCl, 4.9 mM KCl, 1.2 mM MgSO4, 15 mM glucose, and 10 mM 2,3-butanedione monoxime (BDM). […] Changes in [Ca^2+]i in cardiomyocytes were determined at 488 nm excitation/530 nm emission by air-cooled argon laser system. The emitted fluorescence at 530 nm was collected using a photomultiplier. […]

The subject of assay [2] is rat kidney ADPR-cyclase. Nature of the assay: ADPR-cyclase activity assay (cGDPR / e-ADPR fluorescence from NGD+ or e-NAD+). The settings on record: various concentrations. The format is biochemical. Here is the method:
(§1) FIGS. 1A and 1B show the inhibition of rat kidney ADPR-cyclase that was incubated with […] NGD^+ or e-NAD^+ in the presence of various concentrations of 4,4′-dihydrioxyazobenzene (DHAB) at 37° C. for 10 min and effects of DHAB on human CD38, rat brain, heart, spleen, and kidney ADPR-cyclase. FIGS. 1A and 1B are referred to as FIG. 1 herein.
(§2) Specific ADPR-cyclase activity was determined by measuring cyclic GDP-ribose (cGDPR) or etheno-ADP-ribose (e-cADPR) fluorometrically using NGD^+ or e-NAD^+ as a substrate [Greaff et al., Biochem. J. (2002)361:379-84]. Samples were incubated in the presence of 200 mM NGD^+ or e-NAD^+ with and without an appropriate agent in an assay buffer (25 mM HEPES, pH 7.4, 100 mM NaCl, and 0.1% Triton X-100) in a […]. The reaction mixture was incubated at 37° C. for 10 min. The reaction was stopped by adding […] trichloroacetic acid (10%). […] Fluorescence of cGDPR or e-ADPR in the solution was determined at excitation/emission wavelengths of 297/410 nm (HITACHI F-2000 fluorescence spectrophotometer). cADPR-hydrolase activity was determined by incubating cADPR with ADPR-cyclase or CD38 at 37° C. for 20 min. Hydrolysis of cADPR was analyzed by high performance liquid chromatography as described (White et al., 2000). […]

Assay [3] concerns ADPR-cyclase purified partially from rat spleen. Nature of the assay: ADPR-cyclase activity assay, spleen enzyme. The format is biochemical. Set-up: dose or concentration left out as unconfirmed. Here is the method: as §1
as §2, with “of 200 mM” left out

Assay [4] addresses T1, human CD38 (Homo sapiens, UniProt P28907).
T1 sequence (P28907 1-300): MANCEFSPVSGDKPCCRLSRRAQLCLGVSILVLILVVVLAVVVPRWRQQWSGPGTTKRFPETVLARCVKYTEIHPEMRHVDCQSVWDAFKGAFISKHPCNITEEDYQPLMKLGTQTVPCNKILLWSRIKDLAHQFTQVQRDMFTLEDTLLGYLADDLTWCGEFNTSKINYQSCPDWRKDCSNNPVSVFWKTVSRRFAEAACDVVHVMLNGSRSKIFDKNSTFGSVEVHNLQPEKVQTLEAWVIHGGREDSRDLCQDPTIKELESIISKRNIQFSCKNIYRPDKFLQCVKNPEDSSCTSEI
Nature of the assay: ADPR-cyclase activity assay, CD38. The class given is biochemical. Also noted: dose or concentration left out as unconfirmed. Here is the method: as §1
as §2, with “of 200 mM” left out

For the compound `Oc1ccccc1/N=N/c1ccccc1O` [2,2′-DHAB, 2,2′-Dihydroxyazobenzene], in assay [1], the “effect on Ang II-evoked sustained Ca2+ increase” value is on record as “significantly blocked”.

On to `Oc1ccc(N=Nc2ccc(O)cc2)cc1` [4,4′-DHAB, 4,4′-Dihydroxyazobenzene], for which the “inhibition of generation of cGDPR and e-ADPR from NGD+ and e-NAD+” value in assay [2] is reported as “concentration-dependent”. For the same compound, the “sensitivity of enzyme activity to compound” value in assay [3] and in assay [4] was “insensitive” each time.
